Experimental data: US20060167276A1, “Clausenamide c5-hydroxyl derivatives and n-substituted derivatives, processes for their preparation, its composition and use” (priority 2002, published 2006)

Tests used:
[1] = system: C17-2 mouse brain neural stem cells; test: Cell proliferation of mouse brain neural stem cells (MTT, OD 490 nm); assay type: cell-based; conditions: for Cell proliferation %: control group = 100%; for promotion effects on cell proliferation of mouse brain neural stem cells: at doses of 0.1 μM and 1 μM
Method: C17-2 mouse brain neural stem cells (C17-2 cells) were continuously cultured in 1640 medium with 10% horse serum and 10% fetal bovine serum at 5% CO2 and 37° C., dissociated to single cell suspension by 0.1% trypsin solution, centrifuged at 1,000 rpm×5 min and rinsed with medium. The cells were seeded in a 96-well plate, 1×10^3 cells per well, 3 well per group, continuously cultured. After 24 hours, the test compounds were added, doses of each of the C5-hydroxyl substituted clausenamides and N-substituted clausenamide derivatives were 0.1 μM, 1 μM and 10 μM respectively. The growth situation of the cells was observed under a microscope, once daily. At the 4th day, media in each well were pipetted, phosphate buffer solution containing MTT was added. 4 Hours later, the fluid was discarded, and a DMSO solution was added. The cells were incubated at 37° C. for 10 min under shaken. OD values on 490 nm of each well were detected. Set the growth rate of the control group as 100%, and the growth rates of each dose were given by comparison with the control group and t-tested.

[2] = system: rat hippocampus; test: LTP / synaptic transmission in rat hippocampus (population spike amplitude, dentate gyrus); assay type: in vivo; conditions: for Relative PS (PSA %): lateral ventricle, prior administration = 100; for effects on synaptic transmission: P<0.05 vs. control, n=5
Description: Male adult SD Rats (5 per group) were anesthetized with 20% (w/v) urethane carbamate (1.0 g·kg^−1, ip) and fixed in a stereotaxic head holder. According to the reference of Pellegrino stereotaxic spectrum of rat, recording electrodes (stainless steel needle of 0.2 mm diameter were insulted except for 0.2 mm tip) were placed in the dentate gyrus granule cell layer. The stimulating electrodes (two stainless steel needles of 0.15 mm diameter coated with Teflon except for the 0.2 mm tip, and the distance between two needles was 0.5 mm) were planted between the fibre of perforant path (PP) in rat. Continuous pulse was provided by electronic stimulator, and delivered to PP through stimulus isolator and stimulating electrodes. Electrode depth was then adjusted until a typical excitatory postsynaptic potential (EPSP) was observed. Electric current was magnified by amplifier and collected by computer, then processed by DataWave software. The stimulus intensity was adjusted to produce population spike (PS) with a slope that was ≈50% of the maximum. Single-pulse test stimuli were at an interval of 30 sec during the experiment. Population spike amplitude (PSA) was recorded and the relatively percent of PSA was calculated according to the formula (PSA/basic value).

[3] = dose 10^−5 M, MTT at 4th day, OD 490 nm
[4] = dose 10^−6 M, MTT at 4th day, OD 490 nm
[5] = dose 10^−7 M, MTT at 4th day, OD 490 nm

| Compound | Result (OD value) [1, 3] | Cell proliferation % ([1]; dose 10^−5 M) [%] | Result (OD value) [1, 4] | Cell proliferation % ([1]; dose 10^−6 M) [%] | Result (OD value) [1, 5] | Cell proliferation % ([1]; dose 10^−7 M) [%] | Relative PS (PSA %) ([2]; 15 min after administration) [%] | Relative PS (PSA %) ([2]; 30 min after administration) [%] | Relative PS (PSA %) ([2]; 45 min after administration) [%] | Relative PS (PSA %) ([2]; 60 min after administration) [%] | effects on synaptic transmission [2] | effects on cell proliferation of mouse brain neural stem cells (conclusion) [1] | promotion effects on cell proliferation of mouse brain neural stem cells [1] | Result (OD value) ([1]; positive control, dose 5 mg/L) | Cell proliferation % ([1]; positive control, dose 5 mg/L) [%] |
| --- | --- | --- | --- | --- | --- | --- | --- | --- | --- | --- | --- | --- | --- | --- | --- |
| NC(=O)CN1C(=O)C(O)C(c2ccccc2)C1C(O)c1ccccc1 (racemic) [(±)III1, N-(aminocarbonyl-methylene)-norclausenamide] | 0.104 ± 0.009 | 75.91 | 0.205 ± 0.006 | 149.64 | 0.240 ± 0.017 | 175.18 | 85.24 ± 17.41 | 79.82 ± 22.33 | 96.00 ± 19.78 | 117.37 ± 13.49 | – | – | – | – | – |
| O=C(O)CN1C(=O)C(O)C(c2ccccc2)C1C(O)c1ccccc1 (racemic) [(±)III2] | 0.100 ± 0.018 | 72.99 | 0.175 ± 0.006 | 127.74 | 0.218 ± 0.012 | 159.12 | 99.41 ± 9.27 | 117.34 ± 14.74 | 140.2 ± 10.96 | 153.36 ± 13.23 | – | – | – | – | – |
| CC(=O)OCN1C(=O)C(O)C(c2ccccc2)C1C(O)c1ccccc1 (racemic) [(±)III3, N-acetoxymethylene-norclausenamide] | – | – | – | – | – | – | – | – | – | – | significantly upstanding effects | – | – | – | – |
| Cc1cccc(C)c1NC(=O)CN1C(=O)C(O)C(c2ccccc2)C1C(O)c1ccccc1 (racemic) [(±)III5] | 0.171 ± 0.035 | 124.82 | 0.227 ± 0.011 | 165.69 | 0.304 ± 0.051 | 221.90 | 87.51 ± 19.57 | 97.43 ± 32.15 | 111.47 ± 46.02 | 137.15 ± 57.17 | – | significant effects | significant promotion effects | – | – |
| O=C1C(O)C(c2ccccc2)C(C(O)c2ccccc2)N1Cc1ccccc1 (racemic) [(±)III8] | 0.096 ± 0.022 | 70.07 | 0.144 ± 0.038 | 105.11 | 0.221 ± 0.043 | 161.31 | 67.75 ± 26.84 | 68.48 ± 21.15 | 79.25 ± 16.62 | 98.97 ± 14.26 | – | – | – | – | – |
| COc1ccc(CN2C(=O)C(O)C(c3ccccc3)C2C(O)c2ccccc2)cc1 (racemic) [(±)III9] | 0.120 ± 0.027 | 87.59 | 0.138 ± 0.012 | 100.73 | 0.212 ± 0.011 | 154.74 | 115.6 ± 17.94 | 107.18 ± 20.09 | 103.77 ± 15.36 | 112.72 ± 8.95 | – | – | – | – | – |
| CN1C(=O)C(O)C(c2ccccc2)C1=Cc1ccccc1 (single isomer, unassigned) [(−)Δ^5,6-I, (−)-Δ^5,6-clausenamide] | 0.076 ± 0.016 | 55.47 | 0.165 ± 0.011 | 120.44 | 0.246 ± 0.005 | 179.56 | 123.37 ± 14.80 | 138.79 ± 10.94 | 158.89 ± 23.04 | 181.50 ± 35.88 | significantly upstanding effects | – | – | – | – |
| CC(=O)OCN1C(=O)C(O)C(c2ccccc2)C1C(O)c1ccccc1 (single isomer, unassigned; (-)) [(−)III3, N-acetoxymethylene-norclausenamide] | 0.061 ± 0.007 | 44.53 | 0.147 ± 0.021 | 107.30 | 0.217 ± 0.024 | 158.39 | 90.33 ± 16.11 | 100.15 ± 7.48 | 118.33 ± 25.07 | 141.37 ± 30.83 | – | – | – | – | – |
| CN1C(=O)[C@@H](O)[C@H](c2ccccc2)[C@]1(O)[C@H](O)c1ccccc1 [(+)II1, (+)-(3S,4S,5S,6R)-5-hydroxy-clausenamide] | 0.093 ± 0.007 | 67.88 | 0.264 ± 0.036 | 192.70 | 0.250 ± 0.016 | 182.48 | 144.86 ± 49.53 | 168.02 ± 49.16 | 194.32 ± 56.65 | 233.24 ± 55.62 | significantly upstanding effects | – | – | – | – |
| CN1C(=O)[C@@H](O)[C@H](c2ccccc2)[C@@]1(O)[C@@H](O)c1ccccc1 [(+)II2, (+)-(3S,4S,5R,6S)-5-hydroxy-clausenamide] | 0.076 ± 0.008 | 55.47 | 0.220 ± 0.023 | 160.58 | 0.175 ± 0.059 | 127.74 | 81.48 ± 6.13 | 77.33 ± 8.93 | 82.56 ± 1.87 | 99.92 ± 6.26 | – | – | – | – | – |
| CN1C(=O)[C@H](O)[C@@H](c2ccccc2)[C@@]1(O)[C@@H](O)c1ccccc1 [(−)II1, (−)-(3R,4R,5R,6S)-5-hydroxy-clausenamide] | 0.126 ± 0.016 | 91.97 | 0.236 ± 0.049 | 172.26 | 0.256 ± 0.020 | 186.86 | – | – | – | – | – | significant effects | significant promotion effects | – | – |
| fibroblast growth factor [FGF, reference compound] | – | – | – | – | – | – | – | – | – | – | – | – | – | 0.340 ± 0.035 | 248.17 |
